Columns and labels:
IFIT1 = biological target: T1, IFIT1 (Homo sapiens, UniProt P09914); test: Binding ability of mRNA to IFIT1, RNA co-immunoprecipitation and qPCR in Hela cells; settings: 2 ug mRNA/well, cells collected after 24 hours, relative to ^m7GpppApG cap, mean±SD
T1 construct: endogenous in cells; host or cells: Hela cells (ATCC CCL-2)
T1 sequence (P09914 1-478): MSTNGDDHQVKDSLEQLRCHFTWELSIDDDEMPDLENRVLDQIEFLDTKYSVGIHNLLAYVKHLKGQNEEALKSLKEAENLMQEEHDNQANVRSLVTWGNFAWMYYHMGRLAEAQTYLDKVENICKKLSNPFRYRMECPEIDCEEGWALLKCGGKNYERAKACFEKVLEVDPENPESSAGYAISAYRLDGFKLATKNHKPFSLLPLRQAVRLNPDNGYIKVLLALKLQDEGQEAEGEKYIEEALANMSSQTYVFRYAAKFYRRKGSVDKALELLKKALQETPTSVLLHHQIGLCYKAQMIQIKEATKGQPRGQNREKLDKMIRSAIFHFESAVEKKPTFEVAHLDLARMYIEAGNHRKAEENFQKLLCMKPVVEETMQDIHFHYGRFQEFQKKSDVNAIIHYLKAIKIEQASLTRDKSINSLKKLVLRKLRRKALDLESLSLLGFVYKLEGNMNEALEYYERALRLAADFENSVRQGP
Procedure: In this example, Hela cells (ATCC CCL-2) were transfected with luciferase mRNAs (Gaussia luciferase) comprising various initial cap structures (the initial cap nucleotide structures comprised are: ^m7GpppApG, ^m7GpppA2′Ome pG, ^m7G3′OmepppA2′O-ethylpG, ^m7G2′OmepppA2′O-ethylpG, ^m7G3′Omeppp A2′O-MOEpG, ^m7G2′O-mepppA2′O-MOEpG, ^m7Gppp(N6-methyladenine)2′O-MOEpG, ^m7G2′OmepppC2′O-ethylpC, ^m7G3′OmepppA2′O-MOEpU), and collected after 24 hours. The intracellular proteins RIG-I and IFIT1 were co-precipitated with the RNAs to which they bound by RNA co-immunoprecipation. The mRNAs were subjected to reverse transcription and real-time quantitative PCR, and the relative abundance of the mRNAs is proportional to their RIG-I and IFIT1 binding ability.
(§1) Hela cells were seeded at a cell density of 4×10^5/well in 6-well plates, and transfected with mRNA at 2 ug mRNA/well when the cell density reached about 80% using Lipofectamine MessengerMAX Transfection Reagent (Invitrogen) according to the transfection steps in the instruction. The cells were collected after 24 hours, and incubated at RT for 10 minutes after the addition of fixative solution. The reaction was then terminated by adding glycine at a suitable concentration, and the cells were collected by centrifugation. Appropriate amount of lysis solution was added to the cells. The mixture was incubated on ice for 30 minutes and centrifuged to collect supernatant. Appropriate amount of (2-4 ng) anti-RIG-I and IFIT1 antibodies (Abcam) were added to the supernatant, and the mixture was incubated overnight at 4° C. on a shaker, and then 20 ul Protein A/G magnetic beads were added and incubated for 2 hours at 4° C. on a shaker. The beads were rinsed using magnetic grate for 5 minutes and repeated 3 times. After that, 1 mL TRIzol reagent was added to the magnetic beads to extract RNAs which were then reverse transcribed into cDNAs. The expression of related genes was detected using real-time quantitative fluorescent PCR with B-actin as the internal reference. The detection of each gene was repeated 3 times, and the result of the expression of each gene is expressed as the relative value to the result of ^m7GpppApG cap.
The intracellular proteins RIG-I and IFIT1 were co-precipitated with the RNAs to which they bound by RNA co-immunoprecipitation. The mRNAs were subjected to reverse transcription and real-time quantitative PCR, and the relative abundance of the mRNAs is proportional to their RIG-I and IFIT1 binding ability.
as §1, with “(Invitrogen) as the transfection reagent” for “(Invitrogen)”, “was” for “was then”

[1] = test system: Thermostable T7 RNA polymerase (NEB); settings: Example 3, thermostable T7 RNA polymerase IVT at 50° C. for 2 hs, LC-MS
Procedure: The LC-MS analyses involved in determining capping efficiency in the following examples are as follows: • Equipment: Waters UPLC H-Class • Column: ACQUITY UPLC Oligonucleotide BEH C18, 2.1*150 mm • Column temperature: 75° C. • Mobile phase A: 200 mM hexafluoroisopropanol+8.15 mM triethylamine pH7.9 • Mobile phase B: methanol • Flow rate: 0.3 mL/min • Gradient:
Initial cap oligonucleotides are ^m7GpppApG, ^m7G pppA2′Ome PG (control), ^m7GBeta-D-LNApppA2′O-MOEpG, and ^m7GAlpha-L-LNApppA2′O-ethyl pG, respectively. • reacting at 50° C. for 2 hs, • adding DNase I (1U), and reacting at 37° C. for 30 mins. (5) Treatment with Antarctic Phosphatase:
For each tested initial cap oligonucleotide, the ratio of capped mRNA was assessed by analyzing liquid chromatography-mass spectrometry (LC-MS) results. In the experiment, a DNA probe complementary to the mRNA was used. Upon the hybridization of the DNA to the RNA, RNaseH specifically hydrolyzed the phosphodiester bond in the RNA to produce small fragments of RNAs with homogeneous 3′ end. The molecular weight and percentage of the small RNA fragments were determined by LC-MS, and were used to determine capping of the RNAs in the transcription reaction. Since the presence and absence of cap at 5′ end can be distinguished by the molecule weight, the capping efficiency can be determined via the molecule weight and percentage of trunked 5′ end-containing RNAs. In addition, from the calculation of the molecule weight, it can be determined that the caps added are the capping nucleotides.

Substance: ^m7G2′OmepppA2′O-MOEpG
- Relative binding ability to IFIT1 (IFIT1; Example 2): 0.66 ± 0.02

Substance: ^m7G2′OmepppA2′O-ethylpG
- Relative binding ability to IFIT1 (IFIT1; Example 2): 0.84 ± 0.08

Substance: ^m7G2′OmepppC2′O-ethylpC
- Relative binding ability to IFIT1 (IFIT1; Example 2): 0.91 ± 0.05

Substance: ^m7G3′OmepppA2′O-MOEpG
- Relative binding ability to IFIT1 (IFIT1; Example 2): 0.76 ± 0.04

Substance: ^m7G3′OmepppA2′O-MOEpU
- Relative binding ability to IFIT1 (IFIT1; Example 2): 1.19 ± 0.07

Substance: ^m7G3′OmepppA2′O-ethylpG
- Relative binding ability to IFIT1 (IFIT1; Example 2): 0.89 ± 0.13

Substance: ^m7GAlpha-L-LNApppA2′O-ethyl pG
- Capping efficiency [1]: 63%
- Relative binding ability to IFIT1 (IFIT1; Example 3 (IVT at 50° C.)): 0.55 ± 0.07

Substance: ^m7GBeta-D-LNApppA2′O-MOEpG
- Capping efficiency [1]: 70%
- Relative binding ability to IFIT1 (IFIT1; Example 3 (IVT at 50° C.)): 0.49 ± 0.04

Substance: ^m7Gppp(N6-methyladenine)2′O-MOEpG
- Relative binding ability to IFIT1 (IFIT1; Example 2): 0.79 ± 0.01

Substance: ^m7GpppA2′Ome pG [reference compound]
- Capping efficiency [1]: 95%
- Relative binding ability to IFIT1 (IFIT1; Example 2): 0.88 ± 0.01
- Relative binding ability to IFIT1 (IFIT1; Example 3 (IVT at 50° C.)): 0.84 ± 0.09

Substance: ^m7GpppApG [reference compound]
- Capping efficiency [1]: 93%
- Relative binding ability to IFIT1 (IFIT1; Example 2): 1 ± 0.04
- Relative binding ability to IFIT1 (IFIT1; Example 3 (IVT at 50° C.)): 1 ± 0.19

Reference: patent US20250136634A1, “CAP ANALOG AND USE THEREOF” (SHANGHAI HONGENE BIOTECH CORPORATION, priority 2021, published 2025)
